Entries after “also recorded” stand apart in the source; their conditions may differ. Like-named read-outs stand apart in the source and are kept apart here.
How the values were obtained:
[1] = test system: Pa-LPS-induced lung injury; format: in vivo, mice
[2] = test system: chronic-CS induced lung inflammation and emphysema; assay: Chronic cigarette smoke (24 weeks) induced lung inflammation and emphysema in C57BL/6 mice; format: in vivo
Text: Scale: white/black bar-50 μm.

neutral SMase = details: at 5 mM GSH; cited from earlier work
ZO-2 = assay: Lipid-raft ZO-2 expression by Western blotting in CFBE41o- and CFBE41o-WT-CFTR cells; format: cell-based, human
NFκB promoter = assay: NFκB luciferase reporter assay in CFBE41o-wt-CFTR and CFBE41o- cells; format: cell-based, human; details: CFBE41o-wt-CFTR cells; 10 ng/ml TNFα, 50 μM FB1, 12 hours; p<0.05; only in the presence of cell surface CFTR
Text: The BALF and cell culture supernatants (n=3-5) were quantified in triplicate for mouse IL-6, IL-1β, or human IL-8 using ELISA kits (R&D Systems, or eBioscience, San Diego, Calif.) following the manufacturer's instructions. MPO levels in neutrophil culture supernatant or mouse BALF were similarly quantified using the MPO ELISA kit (Hycult Biotechnology, Uden, The Netherlands). For reporter assays, CFBE41o-WT-CFTR or CFBE41o-cells were transfected with NF-KB firefly luciferase promoter (pGL2) and renilla luciferase (pRLTK) control using Lipofectamine 2000 (Invitrogen). Renilla luciferase was used as an internal control for normalization of DNA and transfection efficiency of reporter constructs. […] Data were normalized with internal renilla luciferase control for each sample, and the changes in reporter activities with CFTR overexpression were calculated.

membrane ceramide = assay: ZO-1/ceramide co-immunostaining and confocal imaging of CFBE41o-WT-CFTR cells; format: cell-based, human; details: 6 hrs
NFκB = NFκB immunostaining of CFBE41o-WT-CFTR cells after lipid-raft CFTR depletion; format: cell-based, human; details: 5 mM CD, 6 hrs, ± 10 ng/ml Pa-LPS
IL-8 = IL-8 secretion ELISA in CFBE41o-WT-CFTR cells; format: cell-based, human; details: 5 mM CD, 24 hours; p<0.001
lipid-raft CFTR = assay: Intratracheal CD treatment of Cftr+/+ mice, lung immunofluorescence staining; format: in vivo, C57BL/6 mice; details: CD 75 μg/mouse i.t. for 3 days
Experimental: All animal experiments were carried out in accordance with the Johns Hopkins University (JHU) Animal Care and Use Committee (ACUC) approved protocols. Age-, weight-, and sex-matched (24 wk old), B6-12956-Cftr^−/− (Cftrtm^1Kthc-TgN(^FABPCFTR)) (30, 31) and Cftr^+/+ inbred mice strains (procured from Case Western Reserve University Animal Resource Center, Cleveland, Ohio; n=3-5 for all experiments). The changes in cytokine and inflammatory markers between Cftr^+/+and Cftr^−/− mice were verified by multiple (2, 3) experiments, and representative data are shown. All mice were housed in a controlled environment and pathogen-free conditions. […] Mice were sacrificed 24 h after drug treatment, and the bronchoalveolar lavage fluid (BALF) was collected for cytokine ELISAs. The lungs were fixed in 10% buffered formalin phosphate (Fisher Scientific, Pittsburgh, Pa.), paraffin embedded, and cut into longitudinal sections (5 μm thick) on glass slides for immunostaining. For depletion of membrane-CFTR in murine lungs, 72-h i.t. CD treatment was used, and lung tissues were collected as above. The mice (three to four mice per group, 8 to 10 wk old) were exposed to cigarette smoke (CS) using the TE-2 cigarette smoking machine (Teague Enterprises, Davis, Calif.). […] An average total particulate matter of 150 mg/m^3 was recorded in real time during the smoking protocols. […] The human lung tissue samples from Gold stage I (mild, forced expiratory volume [FEV1]% predicted>80%), Gold stage 11 (moderate, FEV1% predicted=˜50-80%), and Gold stage III-IV (severe/very severe, FEV1% predicted <50%) nontumor COPD (with FEV1/forced vital capacity [FVC] ratio of <70%) and Gold stage 0 (at risk) control subjects (procured from Lung Tissue Research Consortium [Bethesda, Md.], National Heart, Lung and Blood Institute, National Institutes of Health) were used for quantification and localization of indicated proteins by immunostaining All the subjects were stable, and Gold I-IV subjects had emphysema. […]

lipid-raft Fas and CFTR = assay: Immunoblotting of lung lipid-raft protein fraction from CD treated and/or sub-chronic CS exposed Cftr+/+ mice; format: in vivo; details: CD i.t. 2×50 μg
[3] = Cftr+/+ mice, Pa-LPS i.t. 12 h, then drug i.t. 24 h
[4] = Cftr-/- mice, Pa-LPS i.t. 12 h, then drug i.t. 24 h

CN(C)CCC=C1c2ccccc2CCc2ccccc21 [AMT, Amitriptyline]
protection against Pa-LPS-induced lung injury ([1]; Cftr+/+ mice, FIG. 4B legend): relatively less protective | Pa-LPS-induced IL-1b secretion (BALF) [1, 3]: unable to rescue | Pa-LPS-induced IL-6 (BALF) [1, 3]: unable to rescue | inflammatory cytokines (BALF) ([1]; Cftr-/- mice, FIG. 4B legend): effectively controls | Pa-LPS-induced IL-1b levels (BALF) [1, 4]: significant decrease | Pa-LPS-induced IL-6 (BALF) [1, 4]: significant decrease

CCCCCCCCCC(=O)N[C@H](CN1CCOCC1)[C@H](O)c1ccccc1 [D-PDMP]
CS induced inflammation and emphysema (H&E) ([2]; chronic-CS 24 weeks, 50 μg/mouse): significant decrease | chronic-CS induced LacCer-accumulation (lung immunostaining) ([2]; chronic-CS 24 weeks, 50 μg/mouse, p<0.05): significantly downregulated | alveolar space enlargement (alveolar diameter, morphometric analysis) ([2]; chronic-CS 24 weeks, p=0.0016): significantly controlled | BALF IL-6 levels ([2]; chronic-CS exposed mice, n=3, p=0.009): rescued to basal levels | chronic-CS induced macrophage (F4/80-positive cells) infiltration in BALF ([2]; flow cytometry, p<0.01): significantly controls

N[C@@H](CCC(=O)N[C@@H](CS)C(=O)NCC(=O)O)C(=O)O [Glutathione]
inhibition of neutral SMase (neutral SMase): greater than 95%

Fumonisin B1 [FB1]
Pa-LPS-induced IL-10 (BALF) ([1]; Cftr+/+ mice, FIG. 4A): significantly decreases | Pa-LPS-induced IL-1b secretion (BALF) [1, 3]: very significant decrease | Pa-LPS-induced IL-6 (BALF) [1, 3]: significantly decreases | reduction in the Pa-LPS-induced IL-6 levels (BALF) ([1]; Cftr+/+ mice, Pa-LPS i.t. 12 h, then drug i.t. 24 h, p<0.05): 2 fold | Pa-LPS-induced IL-1b levels (BALF) [1, 4]: unaltered | Pa-LPS-induced IL-6 (BALF) [1, 4]: decreased; also recorded: modest effect | lipid-raft ZO-2 expression (ZO-2; CFBE41o- cells (no functional CFTR), Pa-LPS 10 ng/ml or FB1 50 μM, 24 h): neither Pa-LPS nor FB1 is able to modulate | lipid-raft ZO-2 expression (ZO-2; in the presence of WT-CFTR (CFBE41o-WT-CFTR cells)): downregulated | TNFα mediated NFκB promoter activity (NFκB promoter): inhibits

TNFα
CD induced membrane ceramide accumulation (membrane ceramide; TNFα 10 ng/ml with CD 5 mM): depletes

methyl-β-cyclodextrin [CD]
CFTR control of NFκB signaling (NFκB): abrogates its control of NFκB signaling | IL-8 chemokine levels (IL-8): significantly induces | NFκB activity (lung immunofluorescence) (lipid-raft CFTR): induces | expression of lipid-raft marker (ZO-2) (lipid-raft CFTR): significant increase | neutrophil chemotaxis (NIMPR14) (lipid-raft CFTR): induces | ceramide accumulation on the cell surface and lipid rafts (membrane ceramide; CD 5 mM): increases | lipid-raft CFTR levels (lipid-raft Fas and CFTR): decrease | lipid-raft Fas expression (lipid-raft Fas and CFTR): increases

Source: patent US20130131146A1, “Compositions and Methods for Treating Pulmonary Conditions” (THE JOHNS HOPKINS UNIVERSITY, priority 2010, published 2013)
